{"source": "patent US7235536B2", "about": "“Cellulose sulfate and other sulfated polysaccharides to prevent and treat papilloma virus infection and other infections” (Rush Presbyterian-St. Luke's Medical Center, priority 2000, dated 2007)", "key": {"[1]": {"system": "Porphyromonas asaccharolytica", "experiment": "Broth method MIC", "format": "cell-based", "settings": "for CS MIC: Broth (study 2)"}, "HPV-40": {"system": "HPV-40", "experiment": "RT-PCR ELISA for transient infection of human A431 cells, HPV-40", "format": "cell-based, human papilloma virus", "settings": "with virus (HPV-40)", "description": "Cellulose sulfate and dextran sulfate were each prepared as a 2 mg/ml solution in 0.9% NaCl and tested for microbicidal activity using the in vitro HPV transient infection assay originally described by Smith and colleagues (Smith, L. H., C. Foster, M. E. Hitchcock, and R. Isseroff. 1993. In vitro HPV-11 infection of human foreskin. J. Invest. Dermatol. 101:292-295) with some modifications (Ludmerer, S. W., W. L. McClements, X. M. Wang, J. C. Ling, K. U. Jansen, and N. D. Christensen. 2000. HPV11 mutant virus-like parties elicit immune responses that neutralize virus and delineate a novel neutralizing domain. Virology 266:237-245). An ELISA-based read-out of Optical Density (OD) values using alkaline phosphatase cleavage of the substrate p-nitrophenyl phosphate was also used to measure HPV infection as described below.\nThe RT-PCR assay to detect HPV-40 infection was designed similarly for the detection of HPV-11 infection as described above.\nA modification of the RT-PCR assay that incorporates an ELISA-based read-out (Boehringer-Mannheim) was also included to assess microbicidal activity. Replicate cell cultures of A431 cells were infected with an aliquot of infectious HPV virions as described above. After 4 days of culture, cells were harvested and RNA extracted. RNA was subjected to RT using downstream anti-sense (reverse) primers for HPV-11 or HPV-40 and β-actin (as a control/housekeeping cellular transcript) to initiate cDNA synthesis. The cDNA was processed through 2 sets of 30 cycles of PCR amplification using nested primers: the second set of cycles used digoxygenin (DIG)-dUTP to label the PCR products with DIG. DIG-labeled PCR products were denatured then renatured together with a biotinylated oligonucleotide specific for the targeted PCR product. Biotinylated products were detected in ELISA with plates coated with streptavidin (to capture the biotinylated target PCR product) then anti-DIG antibody and substrate. Labeled PCR products were added directly to ELISA plates, or titrated at 10-fold dilutions in duplicate for each cell culture for each virus dilution.\nThe microbicidal activity was assessed either as the detection of ethidium stained PCR products or as an ELISA-based read-out as described above. […] An initial experiment was conducted to test the specificity of the ELISA-based RT-PCR assay using HPV-11 and HPV-40 infection of A431 cells (Table E)."}, "[2]": {"system": "Fusobacterium gonidiaformans", "experiment": "Agar method MIC", "format": "cell-based", "settings": "for CS MIC: Agar"}, "Prevotella disiens": {"system": "Prevotella disiens", "experiment": "Broth method MIC", "format": "cell-based", "settings": "for CS MIC: Broth (study 2)"}, "[3]": {"system": "Bacteroides thetaiotaomicron", "experiment": "Agar method MIC", "format": "cell-based"}, "trichomonas vaginalis": {"system": "trichomonas vaginalis", "experiment": "Inhibition of Trichomonas growth, live count", "format": "cell-based", "settings": "for number of live trichomonas: 5 mg/ml", "description": "The inhibitory effect of CS on trichomonas vaginalis, protozoa known to cause vaginitis, is shown below. The organisms were grown in modified Diamond's medium. CS was mixed with the organism in modified Diamond's medium at a final concentration of about 5 mg/ml (5.12 mg/ml) and incubated anaerobically at 35° C. Samples were collected at various time points and the number of live trichomonas counted with a hemacytomer. The same procedure was performed in the absence of CS. The volume of the inoculum was varied as indicated in the Tables to study the effect of increasing amounts of the organism on the results."}}}
{"substance": "sodium cellulose sulfate", "values": [{"measurement": "growth inhibition", "setting": "[1]; at the concentrations tested", "value": "Two strains of Porphyromonas asaccharolytica were inhibited but a third one was not"}, {"measurement": "CS MIC", "setting": "[1]; rma# 11656", "value": 5000, "unit": "µg/mL"}, {"measurement": "CS MIC", "setting": "[1]; rma# 11690", "value": "NI (not inhibited by 10 mg/ml (the highest concentration tested))"}, {"measurement": "Mean (SD) of O.D. reading for RT-PCR ELISA, HPV-40 probe", "setting": "HPV-40; 10 μg/ml at viral pretreatment", "value": "0.397 (0.050) O.D."}, {"measurement": "Mean (SD) of O.D. reading for RT-PCR ELISA, HPV-40 probe", "setting": "HPV-40; 100 μg/ml at viral pretreatment", "value": "0.128 (0.008) O.D."}, {"measurement": "Mean (SD) of O.D. reading for RT-PCR ELISA, HPV-40 probe", "setting": "HPV-40; 1000 μg/ml at viral pretreatment", "value": "0.037 (0.004) O.D."}, {"measurement": "lowest concentration of compound that inhibited growth", "setting": "[2]; Example 8, agar, 48 hours anaerobic, highest tested 625 μg/ml", "value": 156, "unit": "µg/mL"}, {"measurement": "CS MIC", "setting": "[2]; rma# 11423", "value": ">625", "unit": "µg/mL"}, {"measurement": "CS MIC", "setting": "[2]; rma# 11653", "value": 156, "unit": "µg/mL"}, {"measurement": "growth inhibition", "setting": "Prevotella disiens; all strains", "value": "inhibited"}, {"measurement": "CS MIC", "setting": "Prevotella disiens; rma# 11579", "value": 10000, "unit": "µg/mL"}, {"measurement": "CS MIC", "setting": "Prevotella disiens; rma# 11698", "value": 10000, "unit": "µg/mL"}, {"measurement": "CS MIC", "setting": "[3]; ATCC (first listed)", "value": ">625", "unit": "µg/mL"}, {"measurement": "CS MIC", "setting": "[3]; rma# 11604", "value": ">625", "unit": "µg/mL"}, {"measurement": "CS MIC", "setting": "[3]; rma# 11651", "value": ">625", "unit": "µg/mL"}, {"measurement": "growth of the trichomonas culture", "setting": "trichomonas vaginalis; 5 mg/ml CS", "value": "Complete inhibition of growth"}, {"measurement": "number of live trichomonas", "setting": "trichomonas vaginalis; 16 hr, 50 μl Trich", "value": 0, "unit": "organisms per ml"}, {"measurement": "number of live trichomonas", "setting": "trichomonas vaginalis; 16 hr, 100 μl Trich", "value": 0, "unit": "organisms per ml"}, {"measurement": "number of live trichomonas", "setting": "trichomonas vaginalis; 16 hr, 200 μl Trich", "value": 0, "unit": "organisms per ml"}, {"measurement": "number of live trichomonas", "setting": "trichomonas vaginalis; 16 hr, 400 μl Trich", "value": 0, "unit": "organisms per ml"}, {"measurement": "number of live trichomonas", "setting": "trichomonas vaginalis; 24 hr, 50 μl Trich", "value": 0, "unit": "organisms per ml"}, {"measurement": "number of live trichomonas", "setting": "trichomonas vaginalis; 24 hr, 100 μl Trich", "value": 0, "unit": "organisms per ml"}, {"measurement": "number of live trichomonas", "setting": "trichomonas vaginalis; 24 hr, 200 μl Trich", "value": 0, "unit": "organisms per ml"}, {"measurement": "number of live trichomonas", "setting": "trichomonas vaginalis; 24 hr, 400 μl Trich", "value": 0, "unit": "organisms per ml"}, {"measurement": "number of live trichomonas", "setting": "trichomonas vaginalis; 40 hr, 50 μl Trich", "value": 0, "unit": "organisms per ml"}, {"measurement": "number of live trichomonas", "setting": "trichomonas vaginalis; 40 hr, 100 μl Trich", "value": 0, "unit": "organisms per ml"}, {"measurement": "number of live trichomonas", "setting": "trichomonas vaginalis; 40 hr, 200 μl Trich", "value": 0, "unit": "organisms per ml"}, {"measurement": "number of live trichomonas", "setting": "trichomonas vaginalis; 40 hr, 400 μl Trich", "value": 0, "unit": "organisms per ml"}, {"measurement": "number of live trichomonas", "setting": "trichomonas vaginalis; 48 hr, 50 μl Trich", "value": 0, "unit": "organisms per ml"}, {"measurement": "number of live trichomonas", "setting": "trichomonas vaginalis; 48 hr, 100 μl Trich", "value": 0, "unit": "organisms per ml"}, {"measurement": "number of live trichomonas", "setting": "trichomonas vaginalis; 48 hr, 200 μl Trich", "value": 0, "unit": "organisms per ml"}, {"measurement": "number of live trichomonas", "setting": "trichomonas vaginalis; 48 hr, 400 μl Trich", "value": 0, "unit": "organisms per ml"}]}
